According to US20080306073A1, “Antitumor Effect Potentiator, Antitumor Preparation, and Method for Treating Cancer” (priority 2005, published 2008):
Where two headings read alike, the source gives them in different places. Marks after values point to notes of the source that are not given here.

Columns and labels:
[1] = system: human colon cancer xenograft HCT-15 strain; test: Action toward a multidrug-resistant strain (Pharmacological Test Example 3); type: in vivo, male nude mice BALB/c-nu/nu
Excerpt: A fragment measuring about 2 mm cubic fragment of the human colon cancer xenograft HCT-15 strain, which expresses P-glycoprotein in large amounts and is resistant to multiple drugs, was subcutaneously implanted on the backs of male nude mice BALB/c-nu/nu. When the average tumor volume (=0.5×major axis (mm)×minor axis (mm)^2) reached about 200 mm^3, the mice were divided into groups (day 0). A TS-1 preparation as prepared in Pharmacological Test Example 1 was orally administered to the mice once a day in an amount as shown in Table 3 from day 1 for 14 consecutive days. The l-OHP preparation was administered only once into the tail vein on day 1 at 10.0 mg/kg immediately before the administration of the TS-1 preparation. The extent of tumor growth inhibition was calculated as in Pharmacological Test Example 1. Using the relative tumor volumes on day 15, the difference in relative tumor volume between the control group and the drug-administered groups was determined according to a Dunnett's test, and the difference between the one which was given either TS-1 or l-OHP and the one which was given TS-1 and l-OHP in combination was evaluated according to Student's t-test.

[2] = system: human colon cancer xenograft COL-1 strain; settings: TS-1 where given 6.9 mg/kg as tegafur po 14 days; for Relative tumor volume (Mean): day 15/day 0; for Extent of tumor growth inhibition (%): day 15; for Extent of body weight change (%): day 15 vs day 0
Description: A fragment measuring about 2 mm cubic fragment of the human colon cancer xenograft COL-1 strain was subcutaneously implanted on the backs of male nude mice BALB/c-nu/nu. When the average tumor volume (=0.5×major axis (mm)×minor axis (mm)^2) reached about 125 mm^3, the mice were divided into groups (day 0).
For the determination of antitumor effect, the ratio of the tumor volume upon grouping (day 0) to the tumor volume on day 15 was calculated to obtain a relative tumor volume. The extent of tumor growth inhibition was determined using the average relative tumor volumes of the drug-administered groups and the control group.
The extent of body weight change between the mice on day 0 and the mice on day 15 was used as an index of systemic toxicity of l-OHP.

[3] = system: human colon cancer xenograft COL-1 strain; settings: l-OHP into the tail vein on days 1 and 8
Description: A fragment measuring about 2 mm cubic fragment of the human colon cancer xenograft COL-1 strain was subcutaneously implanted on the backs of male nude mice BALB/c-nu/nu. When the average tumor volume (=0.5×major axis (mm)×minor axis (mm)^2) reached about 170 mm^3, the mice were divided into groups (day 0).
For the determination of antitumor effect, the ratio of the tumor volume upon grouping (day 0) to the tumor volume on day 15 was calculated to obtain a relative tumor volume. The extent of tumor growth inhibition was determined using the average relative tumor volumes of the drug-administered groups and the control group. Using the relative tumor volumes on the test day, the statistical significance of the difference in relative tumor volume between the control group and the one which was given the pharmaceutical agents was analyzed according to a Dunnett's test; and the statistical significance of the difference in relative tumor volume between the one which was given TS-1 and l-OHP in combination and the one which was given capecitabine and l-OHP in combination was analyzed according to Student's t-test. The extent of body weight change between the mice on day 0 and the mice on day 15 was used as an index of systemic toxicity of the pharmaceutical preparations.

[4] = system: 5-FU-resistant strain of the human colon cancer xenograft KM12C strain; test: Action toward a 5-FU-resistant strain (Pharmacological Test Example 2); settings: TS-1 8.3 mg/kg/day as tegafur po 9 days, l-OHP 8.3 mg/kg iv day 1
Description: A fragment measuring about 2 mm cubic fragment of a 5-FU-resistant strain of the human colon cancer xenograft KM12C strain established by the applicant was subcutaneously implanted on the backs of male nude mice BALB/c-nu/nu. When the average tumor volume (=0.5×major axis (mm)×minor axis (mm)^2) reached about 200 mm^3, the mice were divided into groups (day 0). […] The ratio of the tumor volume on day 0 to the tumor volume on day 10 was calculated to obtain a relative tumor volume.

[5] = system: human colon cancer xenograft KM20C strain; test: Antitumor effect on human colon cancer xenograft KM20C in nude rats (Pharmacological Test Example 1); settings: TS-1 12 or UFT 24 mg/kg/day as tegafur (+ LV 20) po 14 days, l-OHP 10 mg/kg iv day 1
Excerpt: A tegafur/gimeracil/oteracil potassium compound pharmaceutical agent (tegafur/gimeracil/oteracil potassium molar ratio=1:0.4:1, hereinafter sometimes referred to as TS-1), a tegafur/uracil compound pharmaceutical agent (tegafur/uracil molar ratio=1:4, hereinafter sometimes referred to as UFT), and d,l-calcium folinate were independently dissolved or suspended in 0.5% hydroxypropylmethyl cellulose (HPMC) solutions, and pharmaceutical preparations were formulated so as to allow administration thereof in a final dosage of 10 mL/kg.
l-OHP was dissolved in 5% aqueous glucose solution (Otsuka Glucose, manufactured by Otsuka Pharmaceutical Factory Inc.), thereby giving an l-OHP preparation.
A fragment measuring about 2 mm cubic fragment of the human colon cancer xenograft KM20C strain was subcutaneously implanted on the backs of male nude rats F344/NJcl-rnu. When the average tumor volume (=0.5×major axis (mm)×minor axis (mm)^2) reached about 200 mm^3, the rats were divided into groups (day 0).
The TS-1 preparation or the UFT+LV preparation prepared above was orally administered once a day in amounts presented in Table 1 from the day after grouping (day 1) for 14 consecutive days. The l-OHP preparation was administered into the tail vein on day 1 at 10 mg/kg immediately before the administration of the aforementioned preparations.
The ratio of the tumor volume upon grouping (day 0) to the tumor volume on day 15 was regarded as the relative tumor volume: Tumor volume on day 15/Tumor volume on day 0
The extent of tumor growth inhibition (%) was calculated using the average relative tumor volume of the drug-administered groups and the average relative tumor volume of the control group:
[1−(Relative tumor volume of drug-administered group)/(Relative tumor volume of tumor-bearing control group)]×100 (%)
The difference in body weight between rats on day 0 and rats on day 15 presented as a ratio (extent of body weight change) was used as an index of systemic toxicity of the pharmaceutical preparation: […]

[6] = system: human colon cancer xenograft COL-1 strain; test: Preliminary test: maximum tolerable dose of capecitabine (Pharmacological Test Example 5); type: in vivo, male nude mice BALB/c-nu/nu; settings: capecitabine po once a day 14 days at 240, 360 or 540 mg/kg with l-OHP 4.2 mg/kg/day iv days 1 and 8
Description: A fragment measuring about 2 mm cubic fragment of the human colon cancer xenograft COL-1 strain was subcutaneously implanted on the backs of male nude mice BALB/c-nu/nu. When the average tumor volume (=0.5×major axis (mm)×minor axis (mm)^2) reached about 190 mm^3, the mice were divided into groups (day 0). Capecitabine suspended in 0.5% HPMC solution was orally administered to the mice once a day at 240, 360, or 540 mg/kg from the day after grouping for 14 consecutive days. l-OHP dissolved in 5% aqueous glucose solution was administered into the tail vein on days 1 and 8 at 4.2 mg/kg/day immediately before the administration of the Capecitabine. The difference in body weight between the mice on day 0 and the mice on day 15 presented as a ratio and the occurrence of death were used as indices of systemic toxicity of capecitabine.

5-FU decomposition = settings: compared with uracil; cited from earlier work
[7] = l-OHP 2.9 mg/kg iv days 1 and 8
[8] = l-OHP 3.5 mg/kg iv days 1 and 8
[9] = l-OHP 4.2 mg/kg iv days 1 and 8
[10] = l-OHP 5.0 mg/kg iv days 1 and 8

With `O=C([O-])C(=O)[O-].[NH-][C@@H]1CCCC[C@H]1[NH-].[Pt+4]` (relative stereo) [l-OHP, cis-oxalate(1R,2R-diaminocyclohexane)platinum(II)] the “Relative tumor volume (Mean)” value ([1]; day 15/day 0, TS-1 10 mg/kg/day as tegafur po 14 days, l-OHP 10 mg/kg iv once day 1) was 4.33, the “Extent of tumor growth inhibition (%)” value ([1]; day 15, TS-1 10 mg/kg/day as tegafur po 14 days, l-OHP 10 mg/kg iv once day 1) was 4.3% and the “antitumor effect on the multidrug-resistant tumor (in words)” value ([1]; l-OHP alone, 10 mg/kg iv once day 1) was “barely shows any antitumor effect”. For the same compound, the “Relative tumor volume (Mean)” value [2, 7] was 5.06 ^§, the “Relative tumor volume (Mean)” value [2, 8] was 4.54 ^§, * and the “Relative tumor volume (Mean)” value [2, 9] was 4.43 ^§, **. The “Relative tumor volume (Mean)” value [2, 10] was 4.41 ^§, **, the “Extent of tumor growth inhibition (%)” value [2, 7] was 11.9% and the “Extent of tumor growth inhibition (%)” value [2, 8] was 21.0%. For the same compound, the “Extent of tumor growth inhibition (%)” value [2, 9] was 23.0%, the “Extent of tumor growth inhibition (%)” value [2, 10] was 23.3% and the “Extent of body weight change (%)” value [2, 7] was −18.0%. For the same compound, the “Extent of body weight change (%)” value [2, 8] was −20.6%, the “Extent of body weight change (%)” value [2, 9] was −19.0% and the “Extent of body weight change (%)” value [2, 10] was −16.8%. The “Number of dead animal” value [2, 7] was 0, the “Number of dead animal” value [2, 8] was 0 and the “Number of dead animal” value [2, 9] was 0. The “Number of dead animal” value [2, 10] was 0, the maximum tolerable dose [3] was 4.2 mg/kg/day and the “Relative tumor volume (Mean)” value ([4]; day 10/day 0) was 7.97. The “Extent of tumor growth inhibition (%)” value ([4]; day 10) was 16.1%, the “Extent of body weight change (%)” value ([4]; day 10 vs day 0) was −8.0% and the “Relative tumor volume (Mean)” value ([5]; day 15/day 0) was 4.64. The “Extent of tumor growth inhibition (%)” value ([5]; day 15) was 20.1% and the “Extent of body weight change (%)” value ([5]; day 15 vs day 0) was 0.9%.
For `CCCCCOC(=O)Nc1nc(=O)n([C@@H]2O[C@H](C)[C@@H](O)[C@H]2O)cc1F` [capecitabine], the “maximum tolerable dose at which death due to toxicity is not observed” value [6] was 360 mg/kg/day.
In the case of `Oc1cc(O)c(Cl)cn1` [gimeracil, 2,4-dihydroxy-5-chloropyridine], the “5-FU decomposition inhibitory action relative to that of uracil” value (5-FU decomposition) is given as “about 200 times”.
